Assay results taken from PubChem BioAssay (NCI).
“And” between values parts separate entries of the source, which are not always exact repeats. Equal entries are not always repeated.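 Briefly, cells in 96-well plates were exposed to five compound concentrations for 48 h, and endpoints were estimated by linear interpolation. GI50: concentration for 50% inhibition of growth. TGI: total growth inhibition.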

What was measured:
Test in all cases: inhibition of tumour cell growth, NCI panel, 48 h
KM12 colon = system: KM12 colon
COLO 205 colon = system: COLO 205 colon
MOLT-4 leukemia = system: MOLT-4 leukemia
SF-268 CNS = system: SF-268 CNS
RXF 393 renal = system: RXF 393 renal
NCI-H23 lung = system: NCI-H23 lung
RPMI-8226 leukemia = system: RPMI-8226 leukemia
A498 renal = system: A498 renal
EKVX NSCLC = system: EKVX NSCLC
LOX IMVI melanoma = system: LOX IMVI melanoma

| SMILES | TGI (KM12 colon) | TGI (COLO 205 colon) | TGI (MOLT-4 leukemia) | TGI (SF-268 CNS) | TGI (RXF 393 renal) | TGI (NCI-H23 lung) | TGI (RPMI-8226 leukemia) | TGI (A498 renal) | TGI (EKVX NSCLC) | TGI (LOX IMVI melanoma) | GI50 (KM12 colon) | GI50 (COLO 205 colon) | GI50 (MOLT-4 leukemia) | GI50 (SF-268 CNS) | GI50 (RXF 393 renal) | GI50 (NCI-H23 lung) | GI50 (RPMI-8226 leukemia) | GI50 (A498 renal) | GI50 (EKVX NSCLC) | GI50 (LOX IMVI melanoma) |
| --- | --- | --- | --- | --- | --- | --- | --- | --- | --- | --- | --- | --- | --- | --- | --- | --- | --- | --- | --- | --- |
| C/C(=N\NC(N)=S)c1ccc(/C(C)=N/NC(N)=S)cc1 | > 100 µM | > 100 µM | > 100 µM | > 100 µM | > 100 µM | > 100 µM | > 100 µM | > 100 µM | > 100 µM | > 100 µM | – | – | – | – | – | – | – | – | – | – |
| O=S(=O)(O)C(F)(F)C(F)(F)C(F)(F)C(F)(F)F | > 100 µM | > 100 µM | > 100 µM | > 100 µM | > 100 µM | > 100 µM | > 100 µM | > 100 µM | > 100 µM | > 100 µM | – | – | – | – | – | – | – | – | – | – |
| C/C(=N\NC(N)=S)c1ccc2c(c1)OCO2 | > 100 µM | > 100 µM | > 100 µM | > 100 µM | > 100 µM | > 100 µM | > 100 µM | > 100 µM | > 100 µM | > 100 µM | – | – | – | – | – | – | – | – | – | – |
| Cn1cnc2c(F)c(Nc3ccc(Br)cc3Cl)c(C(=O)NOCCO)cc21 | > 100 µM | > 15.1 µM | > 100 µM | > 100 µM | > 10 µM and 78 µM | > 100 µM | > 100 µM | 1.86 µM and 4.1 µM | > 100 µM | > 80.9 µM | 0.685 µM and 0.847 µM | 0.0211 µM and < 0.0137 µM | > 10 µM and 62.2 µM | > 10 µM and 60.5 µM | 1.9 µM and 9.28 µM | 0.74 µM and 1.04 µM | > 10 µM and 28.2 µM | 0.103 µM and 0.16 µM | 0.734 µM and 3.88 µM | 1.26 µM and 1.45 µM |
| O=C1C(NCCO)=C(N2CC2)C(=O)C(NCCO)=C1N1CC1 | > 100 µM | > 90.3 µM | 58.5 µM | 76.8 µM | > 100 µM | 74.6 µM | > 84.8 µM | > 100 µM | > 100 µM | 41.3 µM | – | – | – | – | – | – | – | – | – | – |
| CC(C)=CC(=O)Cc1nc2ccccc2[nH]c1=O | > 100 µM | > 100 µM | > 100 µM | > 100 µM | 79.2 µM | > 100 µM | > 100 µM | > 100 µM | > 100 µM | > 100 µM | – | – | – | – | – | – | – | – | – | – |
| COc1ccc(C2(CN(C)C)COc3cc(OC)c(OC)cc3C2=O)cc1OC (stereo not drawn) | > 100 µM | 76.2 µM | > 100 µM | > 100 µM | 79.2 µM | 94.4 µM | 63.4 µM | > 100 µM | > 100 µM | 31.1 µM | – | – | – | – | – | – | – | – | – | – |
| COc1cc(N2CCC(N(C)C)CC2)ccc1Nc1ncc(Cl)c(Nc2ccccc2P(C)(C)=O)n1 | > 30 µM | 1.12 µM and 0.33 µM | > 100 µM | 5.04 µM and 2.76 µM | 1.88 µM and 0.874 µM | 17.1 µM and > 4.62 µM | 21.7 µM and > 7.1 µM | 0.476 µM and 0.53 µM | > 7.38 µM | 1.82 µM and 0.68 µM | – | 0.252 µM and 0.0658 µM | 4.05 µM and 1.16 µM | 1.17 µM and 0.386 µM | 0.442 µM and 0.202 µM | 1.33 µM and 0.338 µM | 3.85 µM and 2.05 µM | 0.128 µM and 0.086 µM | 0.344 µM | 0.394 µM and 0.175 µM |
| S=C(Nc1ccccc1)c1ccccn1 | > 100 µM | > 100 µM | > 100 µM | > 100 µM | > 100 µM | > 100 µM | > 100 µM | > 100 µM | > 100 µM | > 100 µM | > 100 µM | 9.34 µM | 42.1 µM | 77.3 µM | 40.3 µM | 75 µM | 41.7 µM | > 100 µM | 42.9 µM | 28.2 µM |
| OCCNc1nc(NCCO)nc(Nc2ccc(C3=NN(c4cc(Cl)cc(Cl)c4)C(c4ccc(Cl)cc4)C3)cc2)n1 (stereo not drawn) | 4 µM | 3.84 µM | 4.02 µM | 3.79 µM | 2.91 µM | 3.4 µM | 4.85 µM | 3.57 µM | 4.72 µM | 3.01 µM | 1.85 µM | 1.91 µM | 1.52 µM | 1.86 µM | 1.44 µM | 1.72 µM | 1.91 µM | 1.73 µM | 2.04 µM | 1.65 µM |
| CCN=C1NN=C(c2ccccc2)c2cc(Cl)ccc2N1 | 31.1 µM | 35.4 µM | 94.8 µM | 91.1 µM | 58 µM | 64.6 µM | 87.1 µM | 90 µM | 92.7 µM | 36.7 µM | – | – | – | – | – | – | – | – | – | – |
| C[C@]12CC[C@H]3[C@@H](CCC4=CC(=O)CC[C@@H]43)[C@@H]1CC[C@@H]2OC1(O)C(=O)c2ccccc2C1=O | > 100 µM | 53 µM | 92.8 µM | > 100 µM | > 100 µM | 62.5 µM | 80 µM | > 100 µM | 2.79 µM | > 100 µM | – | – | – | – | – | – | – | – | – | – |
| COc1ccc(NC2=C(Sc3nc(C)cc(C)n3)C(=O)N(Cc3ccccc3)C2=O)cc1Cl | > 160 µM | > 160 µM | > 160 µM | > 160 µM | 136 µM | > 160 µM | > 160 µM | > 160 µM | > 160 µM | > 160 µM | > 160 µM | > 160 µM | 14.4 µM | > 160 µM | 29 µM | > 160 µM | 8.79 µM | 62.1 µM | 157 µM | > 160 µM |
| C#Cc1cccc(NC(=O)Nc2ccc(NC(=O)CCl)cc2)c1 | 63.8 µM | 60.3 µM | 33.2 µM | 28.5 µM | 23.2 µM | 36 µM | 28.5 µM | > 82.5 µM | > 82.5 µM | 3.19 µM | 18.9 µM | 20.5 µM | 9.6 µM | 12.7 µM | 9.37 µM | 15.4 µM | 10.8 µM | > 82.5 µM | > 82.5 µM | 1.57 µM |
| CC1(C)OC2C(CO)OC(n3ccc(=O)[nH]c3=O)C2O1 (stereo not drawn) | – | > 100 µM | > 100 µM | > 100 µM | > 100 µM | > 100 µM | > 100 µM | > 100 µM | > 100 µM | > 100 µM | – | – | – | – | – | – | – | – | – | – |
| CC(C)(C)Cn1c(N)nc2ccc(-c3[nH]c(C(C)(C)C)nc3-c3ccc(F)cc3)nc21 | 23.9 µM | 21.7 µM | 36.9 µM | 28.7 µM | 14.6 µM | 31 µM | 28.4 µM | 18.2 µM | 18.8 µM | 27.5 µM | 10.3 µM | 7.76 µM | 7.7 µM | 10.6 µM | 4.04 µM | 13.9 µM | 3.29 µM | 2.14 µM | 3.19 µM | 12.8 µM |
